Publication PMC5592744 (Frontiers in Microbiology, 2017)

How the values were obtained:
hla gene = format: cell-based, Staphylococcus aureus
S. aureus [1] = system: S. aureus; design: species or system C57BL/6J mice; details: mouse, in vivo
agrA gene = format: cell-based, Staphylococcus aureus
WT-SrtA = WT-SrtA (Staphylococcus aureus, UniProt Q2FV99); assay: biochemical; format: binding
[2] = system: S. aureus biofilm formation; format: cell-based, Staphylococcus aureus
S. aureus USA 300 = format: cell-based, Staphylococcus aureus
S. aureus [3] = assay: microbe, parasite or virus in culture; format: cell-based; details: Staphylococcus aureus, read-out: minimum inhibitory concentration (MIC)
[4] = system: adhesion of S. aureus to Fn; format: cell-based, Staphylococcus aureus
S. aureus SrtA (WT-SrtA) = S. aureus SrtA (WT-SrtA) (Staphylococcus aureus, UniProt Q2FV99); assay: biochemical
Sequence of S. aureus SrtA (WT-SrtA) (Q2FV99 60-206): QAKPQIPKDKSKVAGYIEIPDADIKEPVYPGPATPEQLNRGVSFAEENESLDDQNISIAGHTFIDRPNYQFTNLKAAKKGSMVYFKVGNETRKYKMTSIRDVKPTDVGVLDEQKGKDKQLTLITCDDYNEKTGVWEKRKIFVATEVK

A549 cells [5] = system: A549 cells
SpA display in S. aureus = format: cell-based, Staphylococcus aureus
[6] = system: S. aureus invasion of J774 cells; format: cell-based, Staphylococcus aureus
A549 cells [7] = format: cell-based

Sequence of WT-SrtA (Q2FV99 60-206): as above

For O=C(/C=C/c1ccccc1)c1ccccc1 [chalcone], the “transcription level of the hla gene” value (hla gene) was “down-regulated”, the “survival rate vs. group without treatment” value (S. aureus [1]) was “significantly higher” and the “transcription level of the agrA gene” value (agrA gene) was “down-regulated”. For the same compound, the Kd (WT-SrtA) was 16.4 µM, the “biofilm formation, untreated vs. treated” value [2] was “quite significant” and the “growth of S. aureus USA 300” value (S. aureus USA 300) was “not visibly affected”. The MIC (S. aureus [3]) was > 4.86 mM, the “adhesion rate to Fn” value [4] was “no inhibition was observed” and the IC50 (S. aureus SrtA (WT-SrtA)) was 53.2 µM. For the same compound, the “cytotoxic effect in A549 cells” value (A549 cells [5]) was “almost no cytotoxic effect”, the SpA display (SpA display in S. aureus) was “significant reductions” and the “quantity of bacteria entering J774 cells” value [6] was “significantly decreased”. For the same compound, the “Hla-induced A549 cell injury (Live/Dead)” value (A549 cells [7]) was “obvious reduction in cell injury” and the “release of LDH into the supernatants” value (A549 cells [7]) was “significantly decrease”.
